Data taken from ChEMBL document CHEMBL1136164, “Carbonic anhydrase inhibitors: X-ray crystallographic structure of the adduct of human isozyme II with a bis-sulfonamide-two heads are better than one?” (Bioorg Med Chem Lett, 2003).

Experiments:
Oryctolagus cuniculus [1] = organism: Oryctolagus cuniculus; assay: Prolonged IOP lowering by the compound in glaucomatous rabbit for 5 to 6 hours; format: functional
Oryctolagus cuniculus [2] = organism: Oryctolagus cuniculus; assay: Prolonged IOP lowering by the compound in glaucomatous rabbit for 3 hours; format: functional

SMILES | IOP lowering (Oryctolagus cuniculus [1]) | IOP lowering (Oryctolagus cuniculus [2])
NS(=O)(=O)c1ccc(CCNC(=O)c2ccc(S(N)(=O)=O)cc2)cc1 | 9.5 mmHg | 
CCN[C@H]1C[C@H](C)S(=O)(=O)c2sc(S(N)(=O)=O)cc21 [DORZOLAMIDE] |  | 3.6 mmHg
